# Test results taken from patent US20170202838A1, “IMMUNOMODULATOR” (TAIHO PHARMACEUTICAL CO., LTD., priority 2015, published 2017).
# How the values were obtained:
# [1] = test system: C57BL/6N mouse spleen cells mixed with irradiated BALB/c mouse spleen cells; assay: T cell modulation through mixed lymphocyte reaction, 3H-Thd uptake (Example 3); format: cell-based; details: allogeneic mixed spleen cells, 3 days culture (FIG. 4)
# Excerpt: A mixed lymphocyte reaction (MLR) is a representative experimentation technique for T cell modulation described in, for example, J. Exp. Med. 127 (5): 879-90, 1968. The influence of Compound (I) imposed on T cell modulation through this reaction was examined.
# Spleens were extracted from C57BL/6N mice and BALB/c mice, grinded with glass slides with frosted areas, and then subjected to hemolysis, so as to obtain spleen cells. The C57BL/6N mouse spleen cells and the BALB/c mouse spleen cells were introduced into a complete medium (i.e., RPMI-1640 supplemented with 10% heat-inactivated FBS, 100 U/ml penicillin, 100 μg/ml streptomycin, and 55 μM 2-mercaptoethanol). The BALB/c mouse spleen cells were irradiated with 30 Gy X-ray to destroy the growth activity. The spleen cells of these allogeneic mice were each added to the final concentration of 1×10^5 cells/well and mixed (Alo), and Compound (I) or the EGFR tyrosine kinase inhibitor (i.e., AZD09291 or Erlotinib) adjusted to relevant concentrations was added thereto. As a control sample, a mixture of syngeneic C57BL/6N mouse spleen cells (Syn) was also prepared. The culture solution was seeded in a 96-well plate at 200 μl/well and then cultured in an incubator at 37° C. in the presence of 5% CO2 for 3 days. […] The amount of 3H-Thd uptake was measured using a liquid scintillation counter.
# mouse spleen cells = assay: Excitation of T cell growth, CFSE flow cytometry of CD4- and CD8-positive spleen cells (Example 4); format: cell-based; details: anti-CD3 1 μg/ml and anti-CD28 1 μg/ml, 3 days; comparators at 0.1 μM (FIG. 5)
# Protocol: The mouse spleen was extracted, grinded with glass slides with frosted areas, and then subjected to hemolysis, so as to obtain spleen cells. The spleen cells were suspended in 5 ml of a staining buffer (0.5% BSA, 2 mM EDTA, PBS(-)), and the cells were stained with 5 μM CFSE (5-carboxyfluorescein succinimidyl ester). Thereafter, the stained cells were washed with an ice-cooled complete medium (RPMI-1640). The CFSE-stained spleen cells were introduced into a complete medium (i.e., RPMI-1640 supplemented with 10% heat-inactivated FBS, 100 U/ml penicillin, 100 μg/ml streptomycin, and 55 μM 2-mercaptoethanol) to prepare a cell suspension (1×10^6 cells/ml), the anti-CD3 antibody and the anti-CD28 antibody were added at 1 μg/ml and 1 μg/ml, respectively, and Compound (I) adjusted to various concentrations or the EGFR tyrosine kinase inhibitor (i.e., AZD09291, Erlotinib, Co1686 (Rociletinib), Ibrutinib, Sunitinib, or Dasatinib) was added at 0.1 μM. […] These culture solutions were seeded in a 96-well plate at 200 μl/well and then cultured in an incubator at 37° C. in the presence of 5% CO2 for 3 days. The cells were recovered and stained with the anti-CD4 antibody and the anti-CD8 antibody. The amounts of CFSE in CD4- and CD8-positive cells were analyzed via flow cytometry.
# Once CFSE is incorporated into a cell, the amount thereof is kept constant in the cell. Since the amount of CFSE per cell decreases by half upon cell division, according to flow cytometric analysis, the intensity of CFSE staining is attenuated and is shifted toward left (i.e., lower level) in the chart, as cell division proceeds. […] In the case of the samples to which other types of EGFR tyrosine kinase inhibitors had been added, in contrast, no such activity for enhancing the cell growth was observed.
# colon26 = assay: Analysis of immunocytes in spleen cells in mouse model subcutaneously implanted with colon cancer cell line (Example 6); format: in vivo; details: Compound (I) 50 mg/kg and/or anti-PD-1 antibody 100 μg/mouse
# Protocol: A cell suspension of the mouse colon cancer cell line (colon26) was prepared with the use of PBS(-) and 50% Matrigel, and the cell suspension was implanted into the syngeneic BALB/c mice via subcutaneous injection at 2×10^3 cells/mouse. The mice were divided into groups based on their body weights 1 day after implantation, and Compound (I) was administered thereto at 50 mg/kg and/or the anti-PD-1 antibody was administered thereto at 100 μg/mouse. A control group to which neither Compound (I) nor the anti-PD-1 antibody had been administered was also prepared. The spleen cells were sampled 21 days after implantation and analyzed via flow cytometry with the use of antibodies each reacting with a relevant immunocyte surface marker.
# [2] = test system: human peripheral blood mononuclear cells; assay: Induction of cytokine production in human peripheral blood mononuclear cells, Bio-Plex Pro cytokine assay (Example 7); format: cell-based; details: 2 days culture, no stimulant (FIG. 9)
# Protocol: Human peripheral blood mononuclear cells were introduced into a human complete medium (i.e., RPMI-1640 supplemented with 10% heat-inactivated FBS, 100 U/ml penicillin, and 100 μg/ml streptomycin) to prepare a cell suspension (1×10^5 cells/ml). Compound (I), the EGFR tyrosine kinase inhibitor (i.e., AZD9291 or Erlotinib), or a cytokine-inducing positive control (i.e., Imiquimod) was added to the cell suspension. A control group to which the EGFR tyrosine kinase inhibitor and others were not added was also prepared (i.e., the non-treatment group). The culture solution was cultured in an incubator at 37° C. in the presence of 5% CO2 for 2 days. The culture supernatant was recovered, and various types of cytokines were inspected with the use of the Bio-Plex Pro human cytokine assay kit.
# MC38 = assay: Tumor volume of subcutaneous mouse colon cancer cell line, alone or combined with anti-PD-1 antibody, in vivo model (Example 11)
# Protocol: A cell suspension of the mouse colon cancer cell line MC38 was prepared with the use of PBS(-) and 50% Matrigel, and the cell suspension was injected subcutaneously into mice at 1×10^6 cells/mouse. The mice were divided into groups when the average subcutaneous tumor volume reached approximately 50 mm^3, Compound (I) (50 mg/kg) or the anti-PD-1 antibody (50 μg/mouse) was administered thereto alone or Compound (I) (50 mg/kg) was administered in combination with the anti-PD-1 antibody (50 μg/mouse), and the tumor volume was measured with the elapse of time. The tumor volume was determined on the basis of the longer diameter and the shorter diameter of the tumor measured percutaneously in accordance with Equation A shown below.
# Tumor volume (mm^3)=longer diameter (mm)×shorter diameter (mm)^2/2 (Equation A)
# EGFR tyrosine kinase = EGFR tyrosine kinase (Homo sapiens, UniProt P00533); details: known from WO 2013/125709; cited from earlier work
# [3] = 21 days after implantation (FIG. 7)
# [4] = 21 days after implantation, compared with control group (FIG. 8)
# Chain of EGFR tyrosine kinase (P00533 25-1210): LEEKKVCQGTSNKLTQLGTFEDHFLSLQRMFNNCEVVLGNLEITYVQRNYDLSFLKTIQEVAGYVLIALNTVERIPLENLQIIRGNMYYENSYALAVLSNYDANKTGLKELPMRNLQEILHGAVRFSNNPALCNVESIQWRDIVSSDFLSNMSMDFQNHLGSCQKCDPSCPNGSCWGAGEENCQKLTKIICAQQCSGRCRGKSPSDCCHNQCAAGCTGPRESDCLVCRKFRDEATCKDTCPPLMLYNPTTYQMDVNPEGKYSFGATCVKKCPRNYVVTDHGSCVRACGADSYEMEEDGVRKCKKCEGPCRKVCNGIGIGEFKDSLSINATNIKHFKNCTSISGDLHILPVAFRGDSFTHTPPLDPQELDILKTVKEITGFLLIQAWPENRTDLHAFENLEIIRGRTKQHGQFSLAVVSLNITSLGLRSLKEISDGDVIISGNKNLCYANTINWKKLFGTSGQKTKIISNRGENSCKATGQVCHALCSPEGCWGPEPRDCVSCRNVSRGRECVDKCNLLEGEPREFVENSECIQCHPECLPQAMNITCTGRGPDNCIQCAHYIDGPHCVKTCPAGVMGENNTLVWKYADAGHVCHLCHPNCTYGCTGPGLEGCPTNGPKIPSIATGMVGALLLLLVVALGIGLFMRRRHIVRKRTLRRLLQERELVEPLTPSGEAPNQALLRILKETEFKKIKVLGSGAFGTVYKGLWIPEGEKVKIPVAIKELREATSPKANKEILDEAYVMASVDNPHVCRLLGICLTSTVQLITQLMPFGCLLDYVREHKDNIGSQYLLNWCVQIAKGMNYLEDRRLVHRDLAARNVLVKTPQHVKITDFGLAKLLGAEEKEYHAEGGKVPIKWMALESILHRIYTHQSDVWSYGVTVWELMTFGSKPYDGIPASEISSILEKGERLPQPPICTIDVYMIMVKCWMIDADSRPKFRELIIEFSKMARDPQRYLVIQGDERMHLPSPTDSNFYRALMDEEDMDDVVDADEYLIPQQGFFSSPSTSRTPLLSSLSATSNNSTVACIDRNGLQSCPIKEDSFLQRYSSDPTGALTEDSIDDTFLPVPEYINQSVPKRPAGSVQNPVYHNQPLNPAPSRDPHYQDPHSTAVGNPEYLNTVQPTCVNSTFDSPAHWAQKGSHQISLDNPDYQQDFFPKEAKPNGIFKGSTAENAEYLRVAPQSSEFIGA
smiles,measurement,setting,value
"C=CC(=O)N[C@H]1CCc2c(-c3cnc4ccccc4c3)c3c(N)ncnc3n2C1 [Compound (I), (S)—N-(4-amino-5-(quinolin-3-yl)-6,7,8,9-tetrahydropyrimido[5,4-b]indolizin-8-yl)acrylamide]",amount of 3H-Thd uptake (amount of T cells grown through the mixed lymphocyte reaction),[1],induced the growth of T cells
same,amount of CFSE per CD4-positive cell (cell growth),mouse spleen cells,decreases
same,amount of CFSE per CD8-positive cell (cell growth),mouse spleen cells,decreases
same,relative number of CD4-positive and CD69-positive cells in spleen cells,colon26; [3],greater than those in the control group
same,"relative number of CD4-positive, CD44-positive, and CD62L-negative cells in spleen cells",colon26; [3],greater than those in the control group
same,CD44 expression level in CD4-positive cells (MFI),colon26; [4],increased
same,CD62L expression level in CD4-positive cells (MFI),colon26; [4],decreased
same,cytokine concentrations relative to the non-treatment group,[2],induced the production of various types of cytokines
same,extent of tumor growth inhibition (tumor volume),"MC38; Compound (I) 50 mg/kg alone, compared with control group (FIG. 13)",greater
same,potentiation of the activity of the anti-PD-1 antibody (tumor volume),MC38; Compound (I) 50 mg/kg in combination with anti-PD-1 antibody 50 μg/mouse (FIG. 13),potentiate the immunomodulation activity of the anti-PD-1 antibody
same,inhibition of EGFR tyrosine kinase,EGFR tyrosine kinase,inhibit EGFR tyrosine kinase with high selectivity
